Laboratory results as given in the NIST ThermoML archive (doi:10.1021/je700062x).

Assay: wn = mass fraction of the nth substance listed
Conditions: 101 kPa, Liquid, controlled-strain rheometer (ARES-RFS, TA Instruments)

O=C[C@H](O)[C@@H](O)[C@@H](O)[C@H](O)CO [(+)-galactose] + O
viscosity [mPa·s]
Conditions | w1 = 0.05 | w1 = 0.1 | w1 = 0.15 | w1 = 0.2 | w1 = 0.3 | w1 = 0.4
268.15 K | – | – | – | – | 8.95 | 18.84
273.15 K | 2.42 | 2.779 | 3.325 | 4.27 | 6.93 | 14.56
278.15 K | 2.077 | 2.4 | 2.77 | 3.37 | 5.34 | 11.17
283.15 K | 1.699 | 2.107 | 2.469 | 2.76 | 4.57 | 9
293.15 K | 1.397 | 1.52 | 1.77 | 2.1 | 3.27 | 6.11

O=C(CO)[C@@H](O)[C@H](O)[C@H](O)CO [D-fructose] + O
viscosity [mPa·s]
Conditions | w1 = 0.05 | w1 = 0.1 | w1 = 0.2 | w1 = 0.3 | w1 = 0.4 | w1 = 0.5 | w1 = 0.6 | w1 = 0.7
263.15 K | – | – | – | – | – | – | – | 4270
268.15 K | – | – | – | 7.97 | 18.51 | 54.8 | 238 | 2446
273.15 K | 2.345 | 2.89 | 4.2 | 6.39 | 14.02 | 35.06 | 148.7 | 1418
278.15 K | 1.999 | 2.44 | 3.39 | 5.5 | 10.84 | 25.27 | 103.4 | 843
283.15 K | 1.681 | 1.991 | 2.859 | 4.45 | 8.07 | 19.44 | 72 | 509.4
293.15 K | 1.26 | 1.43 | 2.092 | 3.07 | 5.67 | 14.33 | 38.31 | 220.7

O=C[C@H](O)[C@@H](O)[C@H](O)[C@H](O)CO [D-glucose] + O
viscosity [mPa·s]
Conditions | w1 = 0.05 | w1 = 0.1 | w1 = 0.2 | w1 = 0.3 | w1 = 0.4 | w1 = 0.5
268.15 K | – | – | – | – | – | 50.8
273.15 K | 2.39 | 2.908 | 4.3 | 8.17 | 15.28 | 37.31
278.15 K | 1.98 | 2.47 | 3.46 | 5.94 | 11.19 | 26.54
283.15 K | 1.76 | 2.02 | 2.93 | 4.83 | 9.63 | 20.52
293.15 K | 1.36 | 1.58 | 2.13 | 3.46 | 6.21 | 13.43

OC[C@H]1O[C@@](CO)(O[C@H]2O[C@H](CO)[C@@H](O)[C@H](O)[C@H]2O)[C@@H](O)[C@@H]1O [D-sucrose] + O
viscosity [mPa·s]
Conditions | w1 = 0.05 | w1 = 0.1 | w1 = 0.2 | w1 = 0.3 | w1 = 0.4 | w1 = 0.5 | w1 = 0.6
268.15 K | – | – | – | – | 25.48 | 92.4 | 491.8
273.15 K | 2.45 | 2.978 | 4.42 | 7.19 | 19.81 | 66.8 | 316.5
278.15 K | 1.91 | 2.472 | 3.48 | 5.99 | 14.22 | 42.93 | 228.9
283.15 K | 1.72 | 2.02 | 3.01 | 5.06 | 11.31 | 31.33 | 153.1
293.15 K | 1.246 | 1.48 | 2.38 | 3.46 | 7.53 | 20.09 | 83.9
